Data as given in US6881749B2, “Pyranoindazoles and their use for the treatment of glaucoma” (Alcon, Inc., priority 2001, dated 2005).

Legend:
monkey = conditions: due to its α1A receptor activity; cited from earlier work
[1] = tested on: Conscious Cynomolgus Monkeys; experiment: IOP response in conscious cynomolgus monkeys; type: in vivo, cynomolgus monkey; conditions: dose 100 μg, 6 hours after dose
rabbits = conditions: cited from earlier work

COc1ccccc1N1CCN(CCCNc2c(C)c(=O)n(C)c(=O)n2C)CC1 [5-methylurapidil]
effect on IOP (monkey): lowers IOP

COc1cc(C[C@@H](C)N)c(OC)cc1I [(R)-DOI]
Percent IOP Reduction ± SEM [1]: 34.4 ± 4.98%

CCCN(CCC)C1CCc2cccc(O)c2C1 (stereo not drawn) [Example 8-OH-DPAT, 8-hydroxydipropylaminotetralin]
effect on IOP (rabbits): reduces IOP
